Experimental data taken from patent US12503617B2, “Ink jet ink composition and recording method” (SEIKO EPSON CORPORATION, priority 2022, dated 2025).

Assay: Solubility in 100 g of water at 20° C.

SMILES: CC(CO)(CO)CO [trimethylolethane]
- solubility: approximately 60 g/100 g of water
